Assays:
Experiment in all cases: relative viability (nuclei count vs DMSO), 5 days (fraction); higher = more cells survive
HARA = tested on: HARA
Procedure, shortened: (§1)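 Relative viability divides the nuclei count in treated wells by that in vehicle wells. Lung cancer cell lines were seeded in 1536-well plates, dosed by pin tool the next day, and fixed and stained after 5 days in one step with final 0.05% Triton X-100, 1% formaldehyde and 1 ug/ml Hoechst. Dosing was a single drug or a fixed anchor-drug dose plus five library-drug doses (not always all listed) in √10 steps, and values are medians of duplicate plates imaged at 4×.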

EMC-BAC-2 = tested on: EMC-BAC-2
Procedure, shortened: as §1

HCC-827 = tested on: HCC-827
Procedure, shortened: as §1

CAL-12T = tested on: CAL-12T
Procedure, shortened: as §1

HCC-366 = tested on: HCC-366
Procedure, shortened: as §1

NCI-H522 = tested on: NCI-H522
Procedure, shortened: as §1

NCI-H2228 = tested on: NCI-H2228
Procedure, shortened: as §1

HOP-62 = tested on: HOP-62
Procedure, shortened: as §1

NCI-H1437 = tested on: NCI-H1437
Procedure, shortened: as §1

NCI-H727 = tested on: NCI-H727
Procedure, shortened: as §1

NCI-H1755 = tested on: NCI-H1755
Procedure, shortened: as §1

NCI-H23 = tested on: NCI-H23
Procedure, shortened: as §1

SW 1573 = tested on: SW 1573
Procedure, shortened: as §1

A-427 = tested on: A-427
Procedure, shortened: as §1

NCI-H2009 = tested on: NCI-H2009
Procedure, shortened: as §1

NCI-H1792 = tested on: NCI-H1792
Procedure, shortened: as §1

SK-LU-1 = tested on: SK-LU-1
Procedure, shortened: as §1

COR-L 105 = tested on: COR-L 105
Procedure, shortened: as §1

NCI-H460 = tested on: NCI-H460
Procedure, shortened: as §1

NCI-H1915 = tested on: NCI-H1915
Procedure, shortened: as §1

LCLC-103H = tested on: LCLC-103H
Procedure, shortened: as §1

NCI-H1395 = tested on: NCI-H1395
Procedure, shortened: as §1

Cc1sc2c(c1C)C(c1ccc(Cl)cc1)=N[C@@H](CC(=O)OC(C)(C)C)c1nnc(C)n1-2 [JQ1] + Cc1nc(Nc2ncc(C(=O)Nc3c(C)cccc3Cl)s2)cc(N2CCN(CCO)CC2)n1 [Dasatinib] (partner 0.075 µM)
relative viability (HARA; first compound 0.04 µM): 0.207 | relative viability (HARA; first compound 0.1265 µM): 0.242 | relative viability (HARA; first compound 0.4 µM): 0.309 | relative viability (HARA; first compound 1.265 µM): 0.236 | relative viability (HARA; first compound 4 µM): 0.247 | relative viability (EMC-BAC-2; first compound 0.04 µM): 0.33 | relative viability (EMC-BAC-2; first compound 0.1265 µM): 0.235 | relative viability (EMC-BAC-2; first compound 0.4 µM): 0.254 | relative viability (EMC-BAC-2; first compound 1.265 µM): 0.205 | relative viability (EMC-BAC-2; first compound 4 µM): 0.371 | relative viability (HCC-827; first compound 0.04 µM): 0.371 | relative viability (HCC-827; first compound 0.4 µM): 0.227 | relative viability (HCC-827; first compound 1.265 µM): 0.438 | relative viability (HCC-827; first compound 4 µM): 0.421 | relative viability (CAL-12T; first compound 0.04 µM): 0.427 | relative viability (CAL-12T; first compound 0.1265 µM): 0.332 | relative viability (CAL-12T; first compound 0.4 µM): 0.228 | relative viability (CAL-12T; first compound 1.265 µM): 0.144 | relative viability (CAL-12T; first compound 4 µM): 0.213 | relative viability (HCC-366; first compound 0.04 µM): 0.667 | relative viability (HCC-366; first compound 0.4 µM): 0.599 | relative viability (HCC-366; first compound 1.265 µM): 0.368 | relative viability (HCC-366; first compound 4 µM): 0.324 | relative viability (NCI-H522; first compound 0.04 µM): 0.951 | relative viability (NCI-H522; first compound 0.1265 µM): 0.641 | relative viability (NCI-H522; first compound 0.4 µM): 0.584 | relative viability (NCI-H522; first compound 1.265 µM): 0.575 | relative viability (NCI-H522; first compound 4 µM): 0.537 | relative viability (NCI-H2228; first compound 0.04 µM): 0.416 | relative viability (NCI-H2228; first compound 0.1265 µM): 0.476 | relative viability (NCI-H2228; first compound 0.4 µM): 0.515 | relative viability (NCI-H2228; first compound 1.265 µM): 0.189 | relative viability (NCI-H2228; first compound 4 µM): 0.245 | relative viability (HOP-62; first compound 0.04 µM): 0.559 | relative viability (HOP-62; first compound 0.1265 µM): 0.31 | relative viability (HOP-62; first compound 0.4 µM): 0.355 | relative viability (HOP-62; first compound 1.265 µM): 0.158 | relative viability (HOP-62; first compound 4 µM): 0.116 | relative viability (NCI-H1437; first compound 0.04 µM): 0.394 | relative viability (NCI-H1437; first compound 0.1265 µM): 0.365 | relative viability (NCI-H1437; first compound 0.4 µM): 0.263 | relative viability (NCI-H1437; first compound 1.265 µM): 0.217 | relative viability (NCI-H1437; first compound 4 µM): 0.244 | relative viability (NCI-H727; first compound 0.04 µM): 0.354 | relative viability (NCI-H727; first compound 0.1265 µM): 0.555 | relative viability (NCI-H727; first compound 0.4 µM): 0.398 | relative viability (NCI-H727; first compound 1.265 µM): 0.295 | relative viability (NCI-H727; first compound 4 µM): 0.426 | relative viability (NCI-H1755; first compound 0.04 µM): 0.421 | relative viability (NCI-H1755; first compound 0.1265 µM): 0.277 | relative viability (NCI-H1755; first compound 0.4 µM): 0.373 | relative viability (NCI-H1755; first compound 1.265 µM): 0.343 | relative viability (NCI-H1755; first compound 4 µM): 0.2 | relative viability (NCI-H23; first compound 0.04 µM): 0.666 | relative viability (NCI-H23; first compound 0.1265 µM): 0.656 | relative viability (NCI-H23; first compound 0.4 µM): 0.579 | relative viability (NCI-H23; first compound 1.265 µM): 0.275 | relative viability (NCI-H23; first compound 4 µM): 0.344 | relative viability (SW 1573; first compound 0.04 µM): 0.486 | relative viability (SW 1573; first compound 0.1265 µM): 0.447 | relative viability (SW 1573; first compound 0.4 µM): 0.31 | relative viability (SW 1573; first compound 1.265 µM): 0.218 | relative viability (SW 1573; first compound 4 µM): 0.23 | relative viability (A-427; first compound 0.04 µM): 0.759 | relative viability (A-427; first compound 0.1265 µM): 0.592 | relative viability (A-427; first compound 0.4 µM): 0.696 | relative viability (A-427; first compound 1.265 µM): 0.696 | relative viability (A-427; first compound 4 µM): 0.529 | relative viability (NCI-H2009; first compound 0.04 µM): 0.258 | relative viability (NCI-H2009; first compound 0.1265 µM): 0.156 | relative viability (NCI-H2009; first compound 0.4 µM): 0.196 | relative viability (NCI-H2009; first compound 1.265 µM): 0.154 | relative viability (NCI-H2009; first compound 4 µM): 0.185 | relative viability (NCI-H1792; first compound 0.04 µM): 0.837 | relative viability (NCI-H1792; first compound 0.4 µM): 0.839 | relative viability (NCI-H1792; first compound 1.265 µM): 0.579 | relative viability (NCI-H1792; first compound 4 µM): 0.5 | relative viability (SK-LU-1; first compound 0.04 µM): 0.185 | relative viability (SK-LU-1; first compound 0.1265 µM): 0.18 | relative viability (SK-LU-1; first compound 0.4 µM): 0.182 | relative viability (SK-LU-1; first compound 1.265 µM): 0.124 | relative viability (SK-LU-1; first compound 4 µM): 0.11 | relative viability (COR-L 105; first compound 0.04 µM): 0.297 | relative viability (COR-L 105; first compound 0.1265 µM): 0.186 | relative viability (COR-L 105; first compound 0.4 µM): 0.156 | relative viability (COR-L 105; first compound 1.265 µM): 0.119 | relative viability (COR-L 105; first compound 4 µM): 0.132 | relative viability (NCI-H460; first compound 0.04 µM): 0.5 | relative viability (NCI-H460; first compound 0.1265 µM): 0.221 | relative viability (NCI-H460; first compound 0.4 µM): 0.201 | relative viability (NCI-H460; first compound 1.265 µM): 0.171 | relative viability (NCI-H460; first compound 4 µM): 0.075 | relative viability (NCI-H1915; first compound 0.04 µM): 0.281 | relative viability (NCI-H1915; first compound 0.1265 µM): 0.303 | relative viability (NCI-H1915; first compound 0.4 µM): 0.317 | relative viability (NCI-H1915; first compound 1.265 µM): 0.249 | relative viability (NCI-H1915; first compound 4 µM): 0.191 | relative viability (LCLC-103H; first compound 0.04 µM): 0.433 | relative viability (LCLC-103H; first compound 0.1265 µM): 0.418 | relative viability (LCLC-103H; first compound 0.4 µM): 0.464 | relative viability (LCLC-103H; first compound 1.265 µM): 0.327 | relative viability (LCLC-103H; first compound 4 µM): 0.266 | relative viability (NCI-H1395; first compound 0.04 µM): 0.36 | relative viability (NCI-H1395; first compound 0.1265 µM): 0.364 | relative viability (NCI-H1395; first compound 0.4 µM): 0.362 | relative viability (NCI-H1395; first compound 1.265 µM): 0.355 | relative viability (NCI-H1395; first compound 4 µM): 0.388

— the supplement of paper PMC10307832
